Like-named read-outs stand apart in the source and are kept apart here.
Key:
[1] = target: inosine-5′-monophosphate dehydrogenase (IMPDH); assay: IMPDH kinetic assay, spectrophotometric reduction of NAD+ (340 nm); format: biochemical; settings: for IC50: common ligand mimics, Examples 23/24
Procedure: For IMPDH analysis, the compounds were screened using a kinetic protocol that spectrophotometrically evaluates reduction of NAD+.
(§1) Stock solutions of each of the reagents were prepared in the following concentrations. Dilutions of the stock solutions were prepared prior to running the assay in the concentrations indicated below.
The IMPDH reaction was monitored at 340 nm prior to and after addition of the inhibitor to detect background reaction with the inhibitor. Solutions of 100 μl of the inhibitors in DMSO were prepared to provide a final DMSO concentration of 5% of the total assay volume. These solutions were incubated for 6 minutes at 37° C. in a 992 μl of a solution containing 0.1 M Tris-HCl, pH 8.0, 0.25 M KCl, 0.3% glycerol, 30 μM NAD+, and 600 μM IMP (inosine monophosphate). The reaction was then initiated with 8 μl of IMPDH (0.75 μg/ml). After the enzyme was added, the solution was mixed for 20 seconds, and the reaction was run for 10 minutes. After a 50 second lag, the samples were read in a Cary spectrophotometer at 340 nm. Reading of the samples was continued until 300 seconds. Cuvette #1 contained the control reaction (no inhibitor), and cuvette #2 contained the positive control reaction in which Cibacron Blue was substituted for inhibitor. The substrate was kept at a level at least 10 times the Km.

[2] = target: glyceraldehyde-3-phosphate dehydrogenase (GAPDH) (Escherichia coli, UniProt P0A9B2); assay: GAPDH kinetic assay, spectrophotometric reduction of NAD+ (340 nm); format: biochemical, E. coli; settings: for inhibition of GAPDH (in words): Example 24 (FIG. 6)
Procedure: For GAPDH analysis, the compounds were screened using a kinetic protocol that spectrophotometrically evaluates reduction of NAD+.
as §1
The GAPDH reaction was monitored at 340 nm prior to and after addition of the inhibitor to detect background reaction with the inhibitor. Solutions of 100 μl of the inhibitors incubated for 6 minutes at 25° C. in a 990 μl of a solution containing 125 mM triethanolamine, pH 7.5, 145 μM glyceraldehyde 3-phosphate (GAP), 0.211 mM NAD, 5 mM sodium arsenate, and 3 mM β-metcaptoethanol (2-BME). The reaction was then initiated with 10 μl of E. coli GAPDH (1:200 dilution of 1.0 mg/ml). After the enzyme was added, the solution was mixed for 20 seconds, and the reaction was run for 10minutes. After a 50 second lag, the samples were read in a Cary spectrophotometer at 340 nm. Reading of the samples was continued until 300 seconds. The final concentration of DMSO in a cuvette was about 5% of the total assay volume. Cuvette #1 contained the control reaction (no inhibitor).
GAP for use in this experiment was deprotected from the diethyl acetal in the following manner. Water was boiled in recrystallizing dish. Dowex (1.5 mg) and GAP (200 mg; SIGMA G-5376) were weighed and placed in a 15 ml conical tube. The Dowex and GAP were resuspended in 2 ml dH2O, followed by shaking of the tube until the GAP dissolved. The tube was then immersed, while shaking, in the boiling water for 3 minutes. Next, the tube was placed in an ice bath to cool for 5 minutes. As the sample cooled, a resin settled to the bottom of the test tube, allowing removal of the supernatant with a pasteur pipette. The supernatant was filtered through a 0.45 or 0.2 μM cellulose acetate syringe filter.
The filtered supernatant was retained, and another 1 ml of dH2O was added to the resin tube. The tube was then shaken and centrifuged for 5 minutes at 3,000 rpm. The supernatant was again removed with a pasteur pipette and passed through a 0.45 or 0.2 μM cellulose acetate syringe filter. The two supernatant aliquots were then pooled to provide a total GAP concentration of about 50 mM. The GAP was then divided into 100 μl aliquots and stored at −20° C. until use.

[3] = target: dihydrodipicolinate reductase (DHPR) (Escherichia coli, UniProt P04036); assay: Screening of bi-ligands for DHPR (Example 25), kinetic assay at 340 nm; format: biochemical; settings: Cibacron Blue at 2.58 μM, Example 25; read-out: inhibition of DHPR, positive control
Procedure: Screening of Biligands for Binding to Dihydrodipicolinate Reductase (DHPR)
This example describes the screening of bi-ligands having common ligand mimics for binding activity to dihydrodipicolinate reductase (DHPR).
Bi-ligands were produced by the methods of Examples 16 to 18. The bi-ligands were screened for binding to DHPR.
Stock solutions of each of the reagents were prepared in the following concentrations. Dilutions of the stock solutions were prepared prior to running the assay in the concentrations indicated below. Dilution of DHPR was prepared in 10 mM HEPES at a pH of 7.4. DHPS was not diluted and was stored in eppindorf tubes.
The L-ASA solution was prepared in the following manner. 180 μM stock solution of ASA was prepared. 100 μl of the ASA stock was mixed with 150 μl of concentrated NaHCO3 and 375 μl of […]. For use in the assay, 28.8 mM L-ASA equal 625 μl of the solution. The L-ASA stock solution was kept at a temperature of −20° C. After dilution, the pH of the 28.8 mM solution was checked and maintained between 1 and 2.
First, the DHPS reaction was monitored at 340 nm prior to and after addition of the inhibitor to detect background reaction with the inhibitor. The solution for background detection was a 945 μl solution containing 0.1 HEPES (pH 7.8), 1 mM pyruvate, 6 μM NADPH, 40 μM L-ASA, and 7 μl of 1 mg/ml DHPS at 25° C. in the volumes provided above. The sample solution was then mixed and incubated for 10 minutes. Next, 500 nM solutions of the inhibitors and enough DMSO to provide a final DMSO concentration of 5% were added. The solution was mixed and incubated for an additional 6 minutes.
In DHPR samples, 5 μl of the diluted DHPR enzyme were added. The sample was mixed for 20 seconds and then the reaction was run for 10 minutes. After a 50 second lag, the samples were read in a Cary spectrophotometer at 340 nm. Reading of the samples was continued until 300 seconds. Cuvette #1 contained the control reaction (no inhibitor), and cuvette #2 contained the positive control reaction in which Cibacron Blue at 2.58 μM was substituted for inhibitor to yield 70 to 80% inhibition. The substrate and NADPH or NAHD were kept near their Km values.

Sequence of glyceraldehyde-3-phosphate dehydrogenase (GAPDH) (P0A9B2 whole entry): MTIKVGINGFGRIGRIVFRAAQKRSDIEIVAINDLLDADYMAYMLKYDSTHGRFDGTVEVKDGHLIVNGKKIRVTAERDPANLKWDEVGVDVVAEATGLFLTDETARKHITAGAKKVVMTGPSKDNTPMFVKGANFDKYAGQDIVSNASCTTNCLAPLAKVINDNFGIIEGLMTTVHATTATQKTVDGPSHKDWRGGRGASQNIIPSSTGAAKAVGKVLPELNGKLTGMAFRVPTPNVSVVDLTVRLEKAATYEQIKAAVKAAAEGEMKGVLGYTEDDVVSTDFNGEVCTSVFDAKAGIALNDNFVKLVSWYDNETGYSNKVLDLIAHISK
Sequence of dihydrodipicolinate reductase (DHPR) (P04036 whole entry): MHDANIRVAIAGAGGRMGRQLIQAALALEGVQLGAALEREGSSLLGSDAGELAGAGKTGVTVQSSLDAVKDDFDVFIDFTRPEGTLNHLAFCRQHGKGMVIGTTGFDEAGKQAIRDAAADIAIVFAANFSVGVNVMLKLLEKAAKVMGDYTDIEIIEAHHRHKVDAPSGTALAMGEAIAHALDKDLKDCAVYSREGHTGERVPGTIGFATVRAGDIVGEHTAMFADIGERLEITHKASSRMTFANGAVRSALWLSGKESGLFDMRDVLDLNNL

Row | SMILES | IC50 [1] | inhibition of GAPDH (in words) [2] | other results
1 | N=C1NC(=O)C(=Cc2ccc(C(=O)O)cc2)S1 [4-(2-imino-4-oxo-thiazolidin-5-ylidenemethyl)-benzoic acid] | > 40 µM | no inhibition | IC50 ([2]; common ligand mimics, Examples 23/24, E. coli GAPDH, read-out: IC50 for GAPDH): > 100 µM
2 | COc1cc(O)ccc1C=C1SC(=N)NC1=O [5-(4-hydroxy-2-methoxy-benzylidene)-2-imino-thiazolidin-4-one] | – | no inhibition | inhibition of IMPDH (in words) ([1]; Example 24 (FIG. 6)): no inhibition
3 | COc1cc(C=C2SC(N)=NC2=O)ccc1O [5-(4-hydroxy-3-methoxy-benzylidene)-2-imino-thiazolidin-4-one] | > 100 µM | – | –
4 | N=C1NC(=O)C(=Cc2ccc(O)c([N+](=O)[O-])c2)S1 [5-(4-hydroxy-3-nitro-benzylidene)-2-imino-thiazolidin-4-one] | > 75 µM | – | IC50 [2]: 153 µM
5 | Nc1c(S(=O)(=O)O)cc(Nc2ccc(Nc3nc(Cl)nc(Nc4ccccc4S(=O)(=O)O)n3)c(S(=O)(=O)O)c2)c2c1C(=O)c1ccccc1C2=O [Cibacron Blue, reference compound] | – | – | inhibition at 2.58 µM [3]: 70 to 80%

— patent US20050019825A9, “Common ligand mimics: pseudothiohydantoins” (priority 2002, published 2005)
